In patent US7183276B2, “Azole compounds” (Takeda Pharmaceutical Company Limited, priority 2002, dated 2007):

| melting point | Structure (SMILES) |
| --- | --- |
| 194 to 195 °C | CS(=O)(=O)CCNC(=O)CCc1oc(-n2cnc3ccccc32)nc1-c1ccc(Cl)cc1 [Example 302, 3-[2-(1H-benzoimidazol-1-yl)-4-(4-chlorophenyl)-5-oxazolyl]-N-[2-(methylsulfonyl)ethyl]propanamide] |
| 104 to 105 °C | O=C(CCc1oc(-n2cnc3ccccc32)nc1-c1ccc(Cl)cc1)N1CCCC(O)C1 (centres unmarked) [Example 300, 1-{3-[2-(1H-benzoimidazol-1-yl)-4-(4-chlorophenyl)-5-oxazolyl]propanoyl}-3-piperidinol] |
| 186 to 187 °C | CCOP(=O)(OCC)c1ccc(NC(=O)CCc2sc(-c3ccccc3)nc2-c2ccc(Cl)cc2)cc1 |
| 206 to 207 °C | O=C(CCc1oc(-n2cnc3ccccc32)nc1-c1ccc(Cl)cc1)NCc1ccc(F)c(Br)c1 [Example 170, 3-[2-(1H-benzimidazol-1-yl)-4-(4-chlorophenyl)-5-oxazolyl]-N-(3-bromo-4-fluorobenzyl)propionamide] |
| 139 to 140 °C | NC(=O)CCc1oc(Oc2ccccc2)nc1-c1ccc(Cl)cc1 [Example 38, 3-[4-(4-chlorophenyl)-2-phenoxy-5-oxazolyl]propionamide] |
| 161 to 162 °C | COc1ccc(-c2nc(-n3cnc4ccccc43)oc2CCC(=O)N2CCC(O)CC2)cc1 [Example 248, 1-(3-[2-(1H-benzoimidazol-1-yl)-4-(4-methoxyphenyl)-5-oxazolyl]propanoyl)-4-piperidinol] |
| 200 to 201 °C | Cc1cc(Cl)ccc1CNC(=O)CCc1oc(-n2cnc3ccccc32)nc1-c1ccc(Cl)cc1 [Example 178, 3-[2-(1H-benzimidazol-1-yl)-4-(4-chlorophenyl)-5-oxazolyl]-N-(4-chloro-2-methylbenzyl)propionamide] |
| 189 to 191 °C | O=C(CCc1oc(-n2cnc3ccccc32)nc1-c1ccc(Cl)cc1)NCc1ccc(Cl)cc1F [Example 159, 3-[2-(1H-benzimidazol-1-yl)-4-(4-chlorophenyl)-5-oxazolyl]-N-(4-chloro-2-fluorobenzyl)propionamide] |
| 274 to 275 °C | NC(=O)c1ccc(NC(=O)/C=C/c2oc(-c3ccccc3)nc2-c2ccc(Cl)cc2)cc1 [Example 68, 4-({(2E)-3-[4-(4-chlorophenyl)-2-phenyl-5-oxazolyl]propenoyl}amino)benzamide] |
| 179 to 180 °C | CCOP(=O)(Cc1ccc(NC(=O)CCc2oc(-n3cnc(C)c3C)nc2-c2ccc(Cl)cc2)cc1)OCC |
| 164 to 165 °C | O=C(CCc1oc(-n2cnc3ccccc32)nc1-c1ccc(Cl)cc1)NCCc1ccccc1 [Example 136, 3-[2-(1H-benzimidazol-1-yl)-4-(4-chlorophenyl)-5-oxazolyl]-N-(2-phenylethyl)propionamide] |
| 180 to 181 °C | NC(=O)CCc1oc(N2CCOCC2)nc1-c1ccc(Cl)cc1 [Example 9, 3-[4-(4-chlorophenyl)-2-(4-morpholinyl)-5-oxazolyl]propionamide] |
| 219 to 220 °C | CC(C)(C)c1ccc(NC(=O)CCc2oc(-n3cnc4ccccc43)nc2-c2ccc(Cl)cc2)cc1 [Example 117, 3-[2-(1H-benzimidazol-1-yl)-4-(4-chlorophenyl)-5-oxazolyl]-N-(4-tert-butylphenyl)propionamide] |
| 249 to 250 °C | COC(=O)c1ccc(NC(=O)CCc2oc(-n3cnc4ccccc43)nc2-c2ccc(Cl)cc2)cc1 [Example 91, 3-[2-(1H-benzimidazol-1-yl)-4-(4-chlorophenyl)-5-oxazolyl]-N-[4-(methoxycarbonyl)phenyl]propionamide] |
| 177 to 178 °C | CCOP(=O)(Cc1ccc(NC(=O)CCc2sc(N)nc2-c2ccc(Cl)cc2)cc1)OCC |
| 206 to 207 °C | NC(=O)CCc1oc(-c2ccc3ccccc3c2)nc1-c1ccc(Cl)cc1 [Example 24, 3-[4-(4-chlorophenyl)-2-(2-naphthyl)-5-oxazolyl]propionamide] |
| 226 to 227 °C | NC(=O)CCc1oc(-c2cccs2)nc1-c1ccc(Cl)cc1 [Example 25, 3-[4-(4-chlorophenyl)-2-(2-thienyl)-5-oxazolyl]propionamide] |
| 171 to 172 °C | CCOP(=O)(OCC)C(O)c1ccc(NC(=O)CCc2oc(-n3cnc4ccccc43)nc2-c2ccc(Cl)cc2)cc1 (centres unmarked) |
| 186 to 187 °C | O=C(CCc1oc(-n2cnc3ccccc32)nc1-c1ccc(Cl)cc1)NCC(=O)NCc1ccccc1 [Example 148, 2-({3-[2-(1H-benzimidazol-1-yl)-4-(4-chlorophenyl)-5-oxazolyl]propanoyl}amino)-N-benzylacetamide] |
| 221 to 222 °C | O=C(CCc1oc(-n2cnc3ccccc32)nc1-c1ccc(Cl)cc1)Nc1ccc(F)cc1 [Example 128, 3-[2-(1H-benzimidazol-1-yl)-4-(4-chlorophenyl)-5-oxazolyl]-N-(4-fluorophenyl)propionamide] |
| 135 to 136 °C | CCOP(=O)(Cc1cccc(NC(=O)CCCc2oc(-n3cnc4ccccc43)nc2-c2ccc(Cl)cc2)c1)OCC |
| 188 to 189 °C | O=C(CCc1sc(-n2cnc3ccccc32)nc1-c1ccc(Cl)cc1)NCc1cc(Br)ccc1F [Example 202, 3-[2-(1H-benzimidazol-1-yl)-4-(4-chlorophenyl)-5-thiazolyl]-N-(5-bromo-2-fluorobenzyl)propionamide] |

| melting point | Structure (SMILES) |
| --- | --- |
| 156 to 157 °C | CCOP(=O)(Cc1ccc(NC(=O)CCc2oc(NCc3ccccc3)nc2-c2ccc(Cl)cc2)cc1)OCC |
| 151 to 152 °C | COc1ccc(-c2nc(-n3cnc4ccccc43)oc2CCC(=O)N2CCN(CC3CCCN(C)C3)CC2)cc1 (centres unmarked) [Example 252, 1-{3-[2-(1H-benzoimidazol-1-yl)-4-(4-methoxyphenyl)-5-oxazolyl]propanoyl}-4-[(1-methylpiperidin-3-yl)methyl]piperazine] |
| 204 to 206 °C | O=C(CCc1oc(-n2cnc3ccccc32)nc1-c1ccc(Cl)cc1)NC1CCC(O)CC1 (centres unmarked) [Example 304, 3-[2-(1H-benzoimidazol-1-yl)-4-(4-chlorophenyl)-5-oxazolyl]-N-(4-hydroxycyclohexyl)propanamide] |
| 225 to 227 °C | NS(=O)(=O)c1ccc(CNC(=O)CCc2oc(-c3ccccc3)nc2-c2ccc(Cl)cc2)cc1 [Example 165, N-[4-(aminosulfonyl)benzyl]-3-[4-(4-chlorophenyl)-2-phenyl-5-oxazolyl]propionamide] |
| 191 to 192 °C | Cc1ccc(CNC(=O)CCc2sc(-n3cnc4ccccc43)nc2-c2ccc(Cl)cc2)cc1 [Example 203, 3-[2-(1H-benzimidazol-1-yl)-4-(4-chlorophenyl)-5-thiazolyl]-N-(4-methylbenzyl)propionamide] |
| 161 to 162 °C | CCOP(=O)(Cc1ccc(NC(=O)CCc2oc(Cc3ccccc3)nc2-c2ccc(Cl)cc2)cc1)OCC |
| 168 to 169 °C | NC(=O)CCCc1oc(-c2ccccc2)nc1-c1ccc(Cl)cc1 [Example 52, 4-[4-(4-chlorophenyl)-2-phenyl-5-oxazolyl]butanamide] |
| 208 to 209 °C | O=C(CCc1oc(-n2cnc3ccccc32)nc1-c1ccc(Cl)cc1)NCc1ccccc1C(F)(F)F [Example 157, 3-[2-(1H-benzimidazol-1-yl)-4-(4-chlorophenyl)-5-oxazolyl]-N-[2-(trifluoromethyl)benzyl]propionamide] |
| 224 to 225 °C | CNS(=O)(=O)Cc1ccc(NC(=O)CCc2oc(-n3ccnc3)nc2-c2ccc(Cl)cc2)cc1 [Example 44, 3-[2-(1H-imidazol-1-yl)-4-(4-chlorophenyl)-5-oxazolyl]-N-(4-{[(methylamino)sulfonyl]methyl}phenyl)propionamide] |
| 218 to 219 °C | Cc1ccc(CNC(=O)CCc2oc(-n3cnc4ccccc43)nc2-c2ccc(Cl)cc2)c(C)c1 [Example 175, 3-[2-(1H-benzimidazol-1-yl)-4-(4-chlorophenyl)-5-oxazolyl]-N-(2,4-dimethylbenzyl)propionamide] |
| 133 to 134 °C | CCOP(=O)(Cc1ccc(NC(=O)CCc2oc(C3CCCCC3)nc2-c2ccc(Cl)cc2)cc1)OCC |
| 126 to 127 °C | Cc1cc(C)n(-c2nc(-c3ccc(Cl)cc3)c(CCC(=O)N3CCN(CC4CCN(C)CC4)CC3)o2)n1 [Example 347, 1-{3-[4-(4-chlorophenyl)-2-(3,5-dimethyl-1H-pyrazol-1-yl)-5-oxazolyl]propanoyl}-4-[(1-methyl-4-piperidinyl)methyl]piperazine] |
| 169 to 170 °C | NC(=O)CCc1oc(Cc2ccccc2)nc1-c1ccc(Cl)cc1 [Example 18, 3-[2-benzyl-4-(4-chlorophenyl)-5-oxazolyl]propionamide] |
| 198 to 199 °C | CCOP(=O)(Cc1ccc(NC(=O)/C=C/c2sc(-n3cnc4ccccc43)nc2C(C)C)cc1)OCC |
| 116 to 117 °C | CCOP(=O)(CCc1ccc(NC(=O)CCCc2oc(-n3cnc4ccccc43)nc2-c2ccc(Cl)cc2)cc1)OCC |
| 141 to 142 °C | CCOP(=O)(Cc1ccc(NC(=O)CCc2oc(-c3ccc(OC)cc3)nc2-c2ccc(Cl)cc2)cc1)OCC |
| 162 to 163 °C | NC(=O)CCc1oc(Sc2ccccn2)nc1-c1ccc(Cl)cc1 [Example 36, 3-[4-(4-chlorophenyl)-2-(2-pyridinylsulfanyl)-5-oxazolyl]propionamide] |
| 135 to 140 °C | CCOC(=O)c1ccc(NC(=O)/C=C/c2oc(-c3ccccc3)nc2-c2ccc(Cl)cc2)cc1 [Example 56, (2E)-3-[4-(4-chlorophenyl)-2-phenyl-5-oxazolyl]-N-[4-(ethoxycarbonyl)phenyl]propenamide] |
| 243 to 244 °C | O=C(CCc1oc(-c2ccccc2)nc1-c1ccc(Cl)cc1)Nc1ccc(C(=O)O)cc1 [Example 63, 4-({3-[4-(4-chlorophenyl)-2-phenyl-5-oxazolyl]propanoyl}amino)benzoic acid] |
| 175 to 176 °C | CCOP(=O)(Cc1ccc(NC(=O)CCc2sc(NC(=O)Nc3ccccc3)nc2-c2ccc(Cl)cc2)cc1)OCC |
| 140 to 141 °C | CCOP(=O)(Cc1ccc(NC(=O)CCCc2sc(-n3cnc4ccccc43)nc2-c2ccc(Cl)cc2)cc1)OCC |
| 184 to 185 °C | CN(C)c1ccc(CNC(=O)CCc2oc(-n3cnc4ccccc43)nc2-c2ccc(Cl)cc2)cc1 [Example 135, 3-[2-(1H-benzimidazol-1-yl)-4-(4-chlorophenyl)-5-oxazolyl)-N-[4-(dimethylamino)benzyl]propionamide] |
